≈ marks a conversion by molar mass, not a printed value. Structures can show the parent of a compound that is named as a salt. Where two headings read alike, the source gives them in different places.
Key:
[1] = system: GFAP expression (astrocytes); assay: Differentiation, immunoenzymatic determination of GFAP expression; type: cell-based, rat; conditions: for Inhibition of differentiation, ID50: Expression of GFAP (OD, 450 nm): five days exposure, mean±SD from 3 independent experiments
Experimental: (§1) This study was carried out according to compliance with bioethical principles. Wistar albino rats were housed under standard laboratory condition of lighting (12 h dark/12 h light), temperature (20 ± 2 °C), and relative humidity (50 – 60%) with free access to commercial feed (Murigan) and tap water. Animals (10–12 week old) were mated overnight and the appearance of a vaginal plug on the next morning was considered as day one of pregnancy. Rat embryos were collected on day 13 of gestation. Procedures were followed essentially as described in INVITTOX Protocol No. 114 [23].
(§2) Tissues were pooled from a number of embryos, washed and incubated for 20 min at 37 °C in sequence in Earle’s balanced salt solution calcium and magnesium-free (CMF, GIBCO), and 1% trypsin (GIBCO) in CMF. Then the tissues were washed in CMF and culture medium (Ham’s F-12 nutrient mixture: foetal bovine serum: L-glutamine: penicillin/streptomycin - 88:10:1:1 v/v – all materials were from GIBCO). A single cell suspension was ensured by mechanical dissociation followed by passing the suspension through sterile 10 μm nylon mesh. Viable cells density was assessed by trypan blue exclusion assay using Bürker’s haemocytometer.
(§3) High-cell-density cultures were set up carefully as a 5–10 μL drop in the centre of each well of 96-well fibronectin coated microplate (BECTON DICKINSON), so that number of cells /well was 5 × 10^4. After 2 h incubation (37°C, 5% CO2) the cells were exposed to different concentrations of tested compounds and incubated five days. […]
(§4) To indicate the target cells damaged, immunofluorescent (IF) and immunoenzymatic (IE) staining was performed. […] IF staining fluorescence was examined using a fluorescent microscope (λ = 490 nm). In IE staining, a substrate (3,3’,5,5’-tetramethylbenzidine, SIGMA) was added (100 μL/well) and reaction was evaluated for 30 min at room temperature. […] The expression level of particular proteins was determined by measuring optical density at 450 nm. […]

[2] = system: rat embryo midbrain micromass cultures; type: cell-based
Experimental: (§5) The values of drug concentration, which inhibited cells viability by 50% (IC50) and reduced differentiation by 50% (ID50) when compared to unexposed control cells, were calculated according to Hill’s equation (sigmoidal model of concentration-response curve). Statistically significant differences between mean values obtained in immunoenzymatic analysis were determined based on analysis of variance (ANOVA) followed by Tukey – Kramer post-hoc test. Values of P < 0.05 were considered as statistically significant. All calculations were done using LSW Data Analysis Toolbox ver. 1.1.1. (MDL® Information Systems, Inc.) in Microsoft Excel 2000 spreadsheet and Kyplot software (Koichi Yoshioka, version 2.0 beta 4). In order to classify embryotoxic potential the mean inhibition concentrations for differentiation (ID50) of test chemical was used and the biostatistically based prediction model (PM) was applied. It is based on the linear discriminate analysis of three functions: function I: 6.65 × log (ID50)–9.49; function II: 6.16 × log (ID50)–8.29; function III: –1.31 × log (ID50)–1.42. The function providing the highest value was used to determine the class of embryotoxicity (class 1 – non-embryotoxic, class 2 – weakly embryotoxic, class 3 – strongly embryotoxic).

[3] = system: MAP2 expression (neurons in late stage of development); assay: Differentiation, immunoenzymatic determination of MAP2 expression; type: cell-based, rat; conditions: for Inhibition of differentiation, ID50: Expression of MAP2 (OD, 450 nm): five days exposure, mean±SD from 3 independent experiments
Experimental: as §1, §2, §3, §4

in vitro = type: cell-based; conditions: Wistar albino, rat
Experimental: as §1
as §2, with “A single cell suspension was ensured by mechanical dissociation followed by passing the suspension through sterile 10 μm nylon mesh.” left out, “haemocytometer. […]” for “haemocytometer.”
Cytotoxicity was quantified using neutral red uptake test (NRU). […] The eluted stain intensity (optical density, OD) was measured at 540 nm following at least 2 h incubation. Surviving cell number was directly related to the absorbance of the eluted stain. […]

[4] = system: βIII tubulin expression (neurons in early stage of development); assay: Differentiation, immunoenzymatic determination of βIII-tubulin expression; type: cell-based, rat; conditions: for Inhibition of differentiation, ID50: Expression of βIII tubulin (OD, 450 nm): five days exposure, mean±SD from 3 independent experiments
Experimental: as §1, §2, §3, §4

[5] = system: rat embryo midbrain micromass cultures (neurospheres); assay: Differentiation, computerised image analysis of haematoxylin stained neurospheres; type: cell-based
Experimental: as §1, §2
High-cell-density cultures were set up carefully as a 5–10 μL drop in the centre of each well of 96-well fibronectin coated microplate (BECTON DICKINSON), so that number of cells /well was 5 × 10^4. After 2 h incubation (37°C, 5% CO2) the cells were exposed to different concentrations of tested compounds and incubated five days. Then dual assessment i.e. cytotoxicity and an impact of tested compound on cells differentiation (embryotoxicity) were done in the same cultures.
After removing the eluted solution, the cells were fixed in 10% formaldehyde for 20 min and stained (approximately 10 s) with Gill’s haematoxylin. Morphometric analysis was performed on digitised images of cells taken with Nikon SMZ stereoscopic microscope linked to Panasonic CCD BP-KR 222E colour camera. The number of neurospheres (containing differentiated neural cells) was counted and their total and individual area was measured using computer image analysis software (LUCIA Measurement System).
as §5, with “It is based on the linear discriminate analysis of three functions: function I: 6.65 × log (ID50)–9.49; function II: 6.16 × log (ID50)–8.29; function III: –1.31 × log (ID50)–1.42.” left out

[6] = system: neurons and astrocytes of cerebellum; conditions: protein and DNA synthesis, rat embryo brain aged 15–16 days, cited from earlier work
mice offspring brain = conditions: three month mice offspring exposed prenatally; cited from earlier work
[7] = system: neurons and astrocytes of ventral mesencephalon; conditions: protein and DNA synthesis, rat embryo brain aged 15–16 days, cited from earlier work
[8] = system: foetuses of pregnant rats; conditions: single oral dose; cited from earlier work
[9] = five days exposure, computerised image analysis, mean±SD from 3 independent experiments

With `O=c1[nH]cc(F)c(=O)[nH]1` [5-FU, 5-fluorouracil, reference compound] as the compound, how does the “Inhibition of differentiation, ID50: Expression of GFAP (OD, 450 nm)” value [1] read?
Its value is 0.18 ± 0.012 µg/mL.

What about the “Class of embryotoxicity (prediction model)” value (“Class … (prediction model)” below) ([2]; rat) of the same compound?
The value was “class 3”.

And the “Inhibition of differentiation, ID50: Expression of MAP2 (OD, 450 nm)” value [3]?
Its value is 0.16 ± 0.010 µg/mL.

What about the IC50 (in vitro) of the same compound?
Its IC50 is 0.15 ± 0.01 µg/mL (≈ 1.15 µM).

And the “Inhibition of differentiation, ID50: Expression of βIII tubulin (OD, 450 nm)” value [4]?
Its value is 0.14 ± 0.010 µg/mL.

With `C[C@@H]1Cc2c(Cl)cc(C(=O)N[C@@H](Cc3ccccc3)C(=O)O)c(O)c2C(=O)O1` [OTA, ochratoxin A] as the compound, how does the “IC50/ID50 ratio: GFAP” value ([1]; NRU IC50 over ID50) read?
Its value is 0.5.

And the “Inhibition of differentiation, ID50: Expression of GFAP (OD, 450 nm)” value [1]?
Its value is 4.87 ± 0.351 µg/mL.

What about the “IC50/ID50 ratio: Number of neurospheres” value ([5]; NRU IC50 over ID50) of the same compound?
The value was 0.7.

What about the “IC50/ID50 ratio: Particular area of neurospheres” value ([5]; NRU IC50 over ID50) of the same compound?
The value was 1.9.

What about the “IC50/ID50 ratio: Total area of neurospheres” value ([5]; NRU IC50 over ID50) of the same compound?
Its value is 1.1.

And the “Inhibition of differentiation, ID50: Number of neurospheres” value [5, 9]?
The value was 3.40 ± 1.100 µg/mL.

What about the “Inhibition of differentiation, ID50: Particular area of neurospheres” value [5, 9] of the same compound?
The value was 1.29 ± 0.923 µg/mL.

What about the “Inhibition of differentiation, ID50: Total area of neurospheres” value [5, 9] of the same compound?
The value was 2.19 ± 0.245 µg/mL.

And the “Differentiated cells after exposure to the two highest concentrations” value ([5]; two highest concentrations, 5 days, haematoxylin staining)?
Its value is “no differentiated cells were observed”.

And the “Median inhibition concentration, astrocytes cerebellum” value [6]?
Its value is roughly 27.9 ± 3.6 µg/mL.

And the “Median inhibition concentration, neurons cerebellum” value [6]?
Its value is roughly 9.7 ± 2.8 µg/mL.

What about the IC50 ([6]; read-out: Median inhibition concentration, astrocytes cerebellum) of the same compound?
The IC50 was roughly 69 µM.

And the IC50 ([6]; read-out: Median inhibition concentration, neurons cerebellum)?
The IC50 was roughly 24 µM.

What about the “IC50/ID50 ratio, all endpoints” value ([2]; all differentiation endpoints) of the same compound?
The value was less than 2.

What about the “ID50, all endpoints of differentiation” value ([2]; for all endpoints) of the same compound?
The value was less than 10 µg/mL.

What about the “Class … (prediction model)” value ([2]; function with highest value from ID50) of the same compound?
Its value is “class 3”.

What about the “IC50/ID50 ratio: MAP2” value ([3]; NRU IC50 over ID50) of the same compound?
Its value is 0.6.

And the “Inhibition of differentiation, ID50: Expression of MAP2 (OD, 450 nm)” value [3]?
The value was 3.90 ± 0.350 µg/mL.

What about the IC50 at 5 days (in vitro; five days exposure, mean±SD from 3 independent experiments, read-out: Cytotoxicity IC50 (Viability, Neutral Red OD, 540 nm)) of the same compound?
The IC50 at 5 days was 2.52 ± 0.062 µg/mL (≈ 6.24 µM).

And the “Tissue weight and DNA content, cerebral hemispheres” value (mice offspring brain)?
Its value is 80 % of control.

And the “Tissue weight and DNA content, remainder of the brain” value (mice offspring brain)?
The value was 90 % of control.

And the “IC50/ID50 ratio: βIII tubulin” value ([4]; NRU IC50 over ID50)?
Its value is 0.5.

And the “Inhibition of differentiation, ID50: Expression of βIII tubulin (OD, 450 nm)” value [4]?
Its value is 4.84 ± 0.581 µg/mL.

What about the “Median inhibition concentration, astrocytes ventral mesencephalon” value [7] of the same compound?
The value was roughly 16.2 ± 2.15 µg/mL.

And the “Median inhibition concentration, neurons ventral mesencephalon” value [7]?
Its value is roughly 5.6 ± 0.40 µg/mL.

And the IC50 ([7]; read-out: Median inhibition concentration, astrocytes ventral mesencephalon)?
Its IC50 is roughly 40 µM.

And the IC50 ([7]; read-out: Median inhibition concentration, neurons ventral mesencephalon)?
Its IC50 is roughly 14 µM.

What about the “Minimum effective teratogenic dose” value [8] of the same compound?
The value was 2.75 mg/kg b.w.

For `CC1(C)S[C@@H]2[C@H](NC(=O)Cc3ccccc3)C(=O)N2[C@H]1C(=O)O` [Pen-G, Penicillin G sodium salt, reference compound], which “Embryotoxicity at fixed concentration” value [2] is on record?
The value was “not embryotoxic”.

What about the “Class … (prediction model)” value ([2]; rat) of the same compound?
Its value is “class 1”.

Reference: article PMC2662459, “Developmental Toxicity of Ochratoxin A in Rat Embryo Midbrain Micromass Cultures” (International Journal of Molecular Sciences, 2008)
